# Laboratory results reported in US20210038577A1, “THIOREDOXIN REDUCTASE INHIBITORS FOR USE IN THE TREATMENT OF CANCER” (Cinda Pharma AB, priority 2018, published 2021).
# Experiments:
# [1] = tested on: U-87 MG (a glioblastoma cell line); experiment: MTT cell viability assay, U-87 MG; type: cell-based; conditions: Homo sapiens, U-87 MG, 72 hrs
# Protocol: (§1) MDA-MB-453 (ATCC HTB-131) cells were grown in media with sodium pyruvate. MDA-MB-231 cells (ATCC HTB-26) were grown in DMEM media or L-15 supplemented with Glutamax (1×). U87-MG (ATCC HTB-14) and MDA-MB-468 (ATCC HTB-132) cells were cultured in DMEM supplemented with Glutamax (1×). NB-4 (DSMZ ACC-207) cells were cultured in RPMI 1640.
# (§2) Breast cancer and glioblastoma cell lines were plated 4000 cells/well in 96-well plates in the presence of 10% FBS media. The following day cells were treated with various concentrations of the example compounds (0.1% DMSO final) and incubated for 72 hrs. After the incubation an MTT assay was performed to access cell viability. Percent of viability was determined using DMSO vehicle and no cell (blank) controls.
# MDA-MB-231 cells [2] = experiment: Alamar-Blue cell viability assay; type: cell-based, human; conditions: Homo sapiens, MDA-MB-231, 72 hrs
# Protocol: MDA-MB-231 cells were plated 2000 cells/well in 96-well black optical plates in the presence of 10% FBS media containing 25 nM selenite. The following day cells were treated with various concentrations of compounds (0.1% DMSO final) and incubated for 72 hrs. After the incubation Alamar Blue reagent was added to each well and incubated for additional 3 hrs. Fluorescence was read ex:530 nm/em:590 nm, and percent of viability was determined using DMSO vehicle and no cell (blank) controls.
# GR from baker's yeast = target: T1, GR from baker's yeast (Saccharomyces cerevisiae, UniProt P41921); experiment: Glutathione reductase (GR) activity assay; type: biochemical; conditions: Molar concentration
# T1 sequence (P41921 17-483 limits assumed): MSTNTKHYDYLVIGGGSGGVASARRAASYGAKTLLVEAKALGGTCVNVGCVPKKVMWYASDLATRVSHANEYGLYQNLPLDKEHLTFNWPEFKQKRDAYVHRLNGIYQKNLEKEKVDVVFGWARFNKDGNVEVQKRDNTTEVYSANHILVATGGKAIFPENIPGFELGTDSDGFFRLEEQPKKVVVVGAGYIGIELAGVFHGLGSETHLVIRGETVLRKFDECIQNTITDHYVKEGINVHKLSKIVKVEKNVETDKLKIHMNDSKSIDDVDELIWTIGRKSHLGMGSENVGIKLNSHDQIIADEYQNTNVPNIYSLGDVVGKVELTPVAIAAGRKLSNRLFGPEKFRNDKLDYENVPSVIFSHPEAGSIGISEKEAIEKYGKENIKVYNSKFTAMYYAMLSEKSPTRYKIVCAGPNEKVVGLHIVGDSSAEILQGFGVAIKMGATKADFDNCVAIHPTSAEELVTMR
# Protocol: GR activity was determined incubating compounds at various concentrations with GR from baker's yeast and 250 μM NADPH for 15 minutes, whereupon 10 mM oxidized glutathione (GSSG) was added to each well and NADPH consumption was followed at OD340. Activity was determined following the consumption of NADPH over time and normalized to DMSO only (Vehicle) and GR lacking (blank) controls.
# [3] = tested on: MDA-MB-231 (a breast cancer cell line); experiment: MTT cell viability assay, MDA-MB-231; type: cell-based, human
# Protocol: as §1, §2
# Trx in MDA-MB-231 cells = experiment: Intracellular Trx levels by ELISA in MDA-MB-231 tumor cells; type: cell-based, human; conditions: for intracellular Trx during treatment: 0.1 μM, 1 μM and 10 μM, over 96 hours; for total intracellular Trx at end of experiment versus untreated cell cultures: end of experiment (96 hours)
# Protocol: The human mammary carcinoma cell line MDA-MB-231 was obtained from the American Type Culture Collection (ATCC; Manassas, Va.) and cultured in Leibovitz's L-15 medium (Thermo Fisher Scientific, USA) supplemented with 10% (v/v) heat-inactivated fetal bovine serum (Thermo Fisher Scientific, USA), 10 mM HERBS (Sigma), 25 mM sodium bicarbonate (Sigma), 1× Glutamax (Sigma), 100 IU/mL penicillin and 100 μg/ml streptomycin (Sigma) in a 5% CO2 atmosphere at 37° C. Briefly, cells were seeded at 7500 cells/well in 96-well plates. After 24 h, the cells were treated either with different concentrations of test compounds or DMSO (0.5%; vehicle control) respectively and further incubated at 37° C. in a CO2 incubator. Culture supernatants were collected at different time points, like, immediately after cell plating (−24 h), 0 h (at the time of compound addition), and 1 h, 6 h, 12 h, 24 h, 48 h, 72 h and 96 h following compound addition. Subsequently, cells were lysed from corresponding wells with 0.1% Triton X-100 and the lysates were collected. Trx levels were measured in both the culture supernatants and cell lysates by ELISA using TXN (Human) ELISA Kit [Abnova; Cat no: KA0535] following manufacturer instruction. A standard curve was prepared using different concentrations of the Trx standard (provided in the kit) with the help of GraphPad Prism software (version 5.0; La Jolla, Calif., USA). Trx concentrations for the unknown samples were calculated from the standard curve. The data were expressed as the means of three replicates.
# 4T1 tumors = experiment: Intratumoral immune cell populations in engrafted 4T1 tumors in BALB/c mice (FACS); type: in vivo; conditions: 1 mg/kg intratumorally bid for 5 days, day 6
# Protocol: Intratumoral immune cell populations within engrafted 4T1 cells in BALB/c mice. 4T1 cells are a murine mammary carcinoma cell line. BALB/c mice are immunocompetent. 1×10^6 4T1 tumor cells in 0% Matrigel were implanted orthotopically into the mammary fat pad. Enrollment of the mice into the treatment arms commenced when the tumors reached an average volume between 175-200 mm^3. […] Tumor volumes were measured using a digital caliper on day 1, 3, and 6 of the study. On day 6 mice were euthanized and tumors were resected for FACs analysis. Populations of murine immune cells including CD45+, CD4+, CD8+, and Tregs were analyzed. CD45+ positive cells were analyzed as the percentage of live cells. CD4+, CD8+, and Tregs cells were analyzed as percentage of CD45+ positive cells.
# [4] = tested on: MDA-MB-468 (a breast cancer cell line); experiment: MTT cell viability assay, MDA-MB-468; type: cell-based; conditions: Homo sapiens, MDA-MB-468, 72 hrs
# Protocol: as §1, §2
# MDA-MB-231 cells [5] = experiment: CellQuanti-Blue cell viability assay, MDA-MB-231; type: cell-based, human
# Protocol: Cell viability was then assessed using the CellQuanti assay. Relative cell viability was determined using DMSO only and blank controls.
# Cells were plated at 2000 cells/well into 96-well plates in media containing 10% FBS. […] CellQuanti-Blue cell viability reagent was added to each well and the plates were subsequently incubated at 37° C. for 3 hours. Viability was determined fluorometrically using an Enspire plate reader […] excitation: 530 nm, emission: 590 nm. Viability was normalized to DMSO controls and blank wells with media.
IC50 [1],IC50 (MDA-MB-231 cells [2]),IC50 (GR from baker's yeast),"IC50 ([3]; Homo sapiens, MDA-MB-231, 72 h)",IC50 [4],IC50 ([3]; 72 hrs),SMILES,intracellular Trx levels in comparison to untreated cells (Trx in MDA-MB-231 cells; e.g. at the 96 h time point),CD8+ levels in tumors relative to no treatment controls (4T1 tumors),ratio of CD8+ cells to Treg cells in tumours (4T1 tumors),intracellular Trx during treatment (Trx in MDA-MB-231 cells),total intracellular Trx at end of experiment versus untreated cell cultures (Trx in MDA-MB-231 cells),intracellular levels of Trx compared with control cells (Trx in MDA-MB-231 cells; at 10 μM),time after which intracellular Trx is reduced compared with control cells (Trx in MDA-MB-231 cells; at 10 μM),"sensitivity of MDA-MB-231 cells over time of exposure (MDA-MB-231 cells [5]; 24, 48, 72 hours (FIG. 2A))","potency relative to Iniparib in MDA-MB-231 cells (MDA-MB-231 cells [5]; CellQuanti-Blue, 24, 48 or 72 hours)"
> 33 µM,54.4 µM,> 30 µM,> 33 µM,> 33 µM,,"NC(=O)c1ccc(I)c([N+](=O)[O-])c1 [Iniparib, 4-Iodo-3-nitrobenzamide, reference compound]",reduced,significantly increased,increases,,,,,,
,,> 30 µM,,,4.88 µM,"CCS(=O)(=O)c1nc(OC)ccc1[N+](=O)[O-] [OT-1129, 2-(ethylsulfonyl)-6-methoxy-3-nitropyridine]",,,,appears to decline,lower,,,,
,,> 30 µM,,,,"CCCCCCCCS(=O)(=O)c1nc(OC)ccc1[N+](=O)[O-] [OT-1096, 6-methoxy-3-nitro-2-(octylsulfonyl)pyridine]",,significantly increased,increases,,,reduced,24 h,,
12.7 µM,3.53 µM,> 30 µM,3.14 µM,9.21 µM,,"COc1ccc([N+](=O)[O-])c(S(=O)(=O)c2ccc(Cl)cc2)n1 [OT-1000, 2-((4-Chlorophenyl)sulfonyl)-6-methoxy-3-nitropyridine]",,,,appears to decline,lower,,,increasingly sensitive,100 fold
